Assay: Human HepG2 cell viability assay in 384 well format
Format: toxicity, cell-based
Parameters: dose 125 nL, time 70.5 hour; concentration not given beside the values
Conditions: HepG2 cells, read-out: Inhibition

Cc1cc(C(=O)N2CCn3cc(CN(C)C)nc3C2)no1
cytotoxicity at 70.5 h: -7.02%

O=C(c1ccccc1F)N1CC[C@@H]2CN(c3ncccn3)CCO[C@@H]2C1
cytotoxicity at 70.5 h: 4.95%

CN1CCC2(CC1)OC(C(=O)NCc1cccnc1)Cn1ccnc12 (centres undefined)
cytotoxicity at 70.5 h: -11.2%

O=C(c1cnccn1)N1CCc2ncc(CN3CCOCC3)n2CC1
cytotoxicity at 70.5 h: -8.64%

Cc1cccc(C(=O)N2CC[C@@H]3CN(c4ncccn4)CCO[C@@H]3C2)c1
cytotoxicity at 70.5 h: -9.91%

CS(=O)(=O)NCc1nnc2n1CCN(Cc1nccs1)C2
cytotoxicity at 70.5 h: 5.64%

O=C(Nc1cccnc1)[C@H]1C[C@@H]2CN(S(=O)(=O)C3CC3)C[C@H]1O2
cytotoxicity at 70.5 h: -4.16%

CN(C)S(=O)(=O)N1C[C@H]2C[C@H](C(=O)Nc3cccnc3)[C@@H](C1)O2
cytotoxicity at 70.5 h: -8.64%

CCCS(=O)(=O)N1C[C@H]2C[C@H](C(=O)Nc3cccnc3)[C@@H](C1)O2
cytotoxicity at 70.5 h: -4.17%

CS(=O)(=O)NCc1nnc2n1CCN(Cc1ccc(F)cc1)C2
cytotoxicity at 70.5 h: -3.88%

Cc1cccc(C(=O)N2C[C@@H]3OCCN(CCN4CCCC4)[C@@H]3C2)n1
cytotoxicity at 70.5 h: -7.28%

CC1=N[C@@]2(CC[C@@H]3CN(S(=O)(=O)C4CC4)C[C@@H]32)C(=O)N1CC(C)C
cytotoxicity at 70.5 h: 10.8%

Cc1nc(COC[C@@H]2CC[C@H]3[C@H](CCN3C(=O)C3CC3)O2)cs1
cytotoxicity at 70.5 h: -7.97%

CC1=N[C@@]2(CC[C@@H]3CN(S(C)(=O)=O)C[C@@H]32)C(=O)N1CC(C)C
cytotoxicity at 70.5 h: -15.6%

CCN1C(=O)[C@]2(CC[C@@H]3CN(S(=O)(=O)CC(C)C)C[C@@H]32)N=C1C
cytotoxicity at 70.5 h: -12.6%

Cc1nnc([C@@H]2CC[C@@H]3[C@@H](CCN3S(C)(=O)=O)O2)o1
cytotoxicity at 70.5 h: -10.9%

CN(C)CC(=O)N1Cc2nc(C(=O)NCc3ccccc3)oc2C1
cytotoxicity at 70.5 h: 13%

CCS(=O)(=O)N1C[C@H]2CC[C@@]3(N=C(C)N(CC(C)C)C3=O)[C@H]2C1
cytotoxicity at 70.5 h: -10.8%

CC(=O)N1Cc2nc(C(=O)NCCc3cccnc3)oc2C1
cytotoxicity at 70.5 h: -6.92%

CCN1Cc2c(C(=O)NC(C)C)ncn2-c2ccccc2S1(=O)=O
cytotoxicity at 70.5 h: -16.2%

CC(=O)N1CC[C@@H]2O[C@@H](COCc3csc(C)n3)CC[C@@H]21
cytotoxicity at 70.5 h: 12%

CCN1C(=O)CO[C@@H]2CN(C(=O)C3CCOCC3)C[C@H]21
cytotoxicity at 70.5 h: -6.45%

CN1CCN(Cc2cnc3n2CCN(C(=O)c2cscn2)C3)CC1
cytotoxicity at 70.5 h: -3%

Cn1cc(CN2Cc3cn(C)nc3C(COCC3CC3)C2)cn1 (centres undefined)
cytotoxicity at 70.5 h: -5.92%

Cc1noc([C@H]2C[C@H]3CN(C(=O)C4CCOCC4)CC[C@@H]3O2)n1
cytotoxicity at 70.5 h: -12.9%

O=C1CC2(CCN(Cc3ncc[nH]3)CC2)CN1Cc1cc(F)cc(F)c1
cytotoxicity at 70.5 h: -3.59%

O=C(O)[C@@H]1CN(C(=O)CSCC2CC2)C[C@H]1c1ccncc1
cytotoxicity at 70.5 h: 1.26%

COc1cccc2c1OCC(Cc1cc(C(N)=O)ccn1)C2 (centres undefined)
cytotoxicity at 70.5 h: 26%

CNCC(=O)N1CCCC1c1nc(C(C)C)no1 (centres undefined)
cytotoxicity at 70.5 h: -7.36%

COc1cccc([C@H]2CN(C(=O)c3scc4c3CCCC4)C[C@@H]2N)c1
cytotoxicity at 70.5 h: -12%

COc1ccccc1CN(Cc1cccnc1)Cc1nccs1
cytotoxicity at 70.5 h: 9.35%

Cc1cc(C)n(CCCN(C)c2cc(C3CC3)ncn2)n1
cytotoxicity at 70.5 h: -7.51%

Cn1cc(CN(C(=O)c2ccc(O)c(Cl)c2)C2CC2)cn1
cytotoxicity at 70.5 h: -14.8%

OC1(CN2CCCCC2)CCN(c2cccc(C(F)(F)F)n2)C1 (centres undefined)
cytotoxicity at 70.5 h: -14.1%

COCCNc1cc(-c2cccc(C(=O)O)c2C)c2cc[nH]c2n1
cytotoxicity at 70.5 h: -11.2%

COc1ccccc1-c1ncc(CN2CCCC(CCC(N)=O)C2)s1 (centres undefined)
cytotoxicity at 70.5 h: -10.1%

COc1ccc2cc(C3CN(C(=O)COC(C)C)CCO3)ccc2c1 (centres undefined)
cytotoxicity at 70.5 h: -2.81%

Cc1ccc([C@@H]2CN(C(=O)c3ccon3)C[C@H]2NC(=O)C2CC2)cc1
cytotoxicity at 70.5 h: -0.162%

Cc1ncc(CC(=O)N2CCCCC2CCN2CCCC2)c(=O)[nH]1 (centres undefined)
cytotoxicity at 70.5 h: -3.87%

CCNC(=O)c1ccnc(N2CCCC(COc3ccccc3C)C2)c1 (centres undefined)
cytotoxicity at 70.5 h: -21.9%

CCNc1ncc(C(=O)N[C@@H](C)[C@H](O)c2ccccc2)cn1
cytotoxicity at 70.5 h: -2.67%

O=C(CCC1CCN(C(=O)c2csnn2)CC1)NCc1cccc(Cl)c1
cytotoxicity at 70.5 h: 7.85%

CC(CCCC(C)(C)O)Nc1ccc(-c2nccn2C)nn1 (centres undefined)
cytotoxicity at 70.5 h: 0.443%

CNC(=O)C1CCN(c2ncnc3c2CCN(C(=O)C2CC2)C3)C1 (centres undefined)
cytotoxicity at 70.5 h: -5.76%

CC(C)c1cc(C(=O)NCCn2nnc3ccccc32)no1
cytotoxicity at 70.5 h: 41.3%

CCN(CC)CC(=O)NCc1cccnc1-n1cnc2ccccc21
cytotoxicity at 70.5 h: -3.36%

COc1ccc2c(c1)C(C(=O)N(C)CCn1ccnc1C)CC(=O)N2 (centres undefined)
cytotoxicity at 70.5 h: -3.22%

CCOc1ccccc1-n1c(C2CCC2)n[nH]c1=O
cytotoxicity at 70.5 h: -18.9%

Cc1noc(C)c1C1CCCN1CCC(=O)N1CCc2ccccc2C1 (centres undefined)
cytotoxicity at 70.5 h: -13.3%

NCC1CCCN(c2nc(-c3ccccc3)nc3c2CCNCC3)C1 (centres undefined)
cytotoxicity at 70.5 h: 5.19%

COCC1CCN(C(=O)c2cn(Cc3ccccc3C(F)(F)F)nn2)C1 (centres undefined)
cytotoxicity at 70.5 h: -21.7%

CC(=O)N1CCCN(C(=O)Nc2ccccc2N2CCOC2=O)CC1
cytotoxicity at 70.5 h: -4.99%

O=C(CC1C=CCC1)N1CCc2ncnc(NCc3ccon3)c2CC1 (centres undefined)
cytotoxicity at 70.5 h: 23.6%

CCCN1CCC(N2CCN(c3cc(C)nc(C)c3)CC2)CC1
cytotoxicity at 70.5 h: 5.6%

O=C1CCC2(CCCN(C(=O)c3ccc[nH]3)C2)CN1CCc1c[nH]cn1 (centres undefined)
cytotoxicity at 70.5 h: 16.9%

N#Cc1c(N)nc2c(c1-c1cnc(N3CCCC3)nc1)COCC2
cytotoxicity at 70.5 h: -5.19%

CCn1ncnc1C(C)NC(=O)Cc1cc2c(cc1Cl)OCCO2 (centres undefined)
cytotoxicity at 70.5 h: 1.43%

COCCNS(=O)(=O)c1cccc2c1CN(C(=O)c1ccoc1)CC2
cytotoxicity at 70.5 h: -10.7%

Cc1ccc(CN(C)Cc2nc3ccc(F)cc3[nH]2)cn1
cytotoxicity at 70.5 h: -0.998%

Cc1cc(C2CCCN2Cc2ccc(C(=O)Nc3nccs3)cc2)on1 (centres undefined)
cytotoxicity at 70.5 h: -2.76%

Cn1ccnc1CCC1CCCCN1Cc1nccn1C (centres undefined)
cytotoxicity at 70.5 h: 14.9%

CC(C)CC(C)NC1CCN(c2cccc(-c3cscn3)c2)CC1 (centres undefined)
cytotoxicity at 70.5 h: -8.68%

COc1ccc(CCCN2C(=O)O[C@@H]3CN(C4CCOCC4)C[C@@H]32)cc1
cytotoxicity at 70.5 h: -3.64%

CSCC(=O)N(C)Cc1noc(-c2ccccc2)n1
cytotoxicity at 70.5 h: -9.48%

CCN1CC(CN(C)Cc2nc(-c3cccc(C)c3)oc2C)CC1=O (centres undefined)
cytotoxicity at 70.5 h: 28.2%

Cc1nc2cc(NC(=O)Cn3ncc(N4CCCC4)cc3=O)ccc2s1
cytotoxicity at 70.5 h: -4.89%

Cc1c[nH]c(CN2CCOC(c3ccc(F)cc3)C2)c(C)c1=O (centres undefined)
cytotoxicity at 70.5 h: -3.86%

O=C(CC(F)(F)F)N1CCCC(c2nccn2Cc2ccncc2)C1 (centres undefined)
cytotoxicity at 70.5 h: -6.22%

CC(C)CN1CC(c2nc(-c3cccc(F)c3)c[nH]2)CC1=O (centres undefined)
cytotoxicity at 70.5 h: -7.31%

CC(=O)N1CCOC(Cc2cccc(C(F)(F)F)c2)C1 (centres undefined)
cytotoxicity at 70.5 h: -4.91%

Cc1csc(N2CCN(C3CCc4ccccc4C3)CC2)n1 (centres undefined)
cytotoxicity at 70.5 h: 13%

CN(C)Cc1csc(-c2nccn2CCc2cccnc2)c1
cytotoxicity at 70.5 h: -8%

CCCc1nnc2sc(C3CCN(CC)CC3)nn12
cytotoxicity at 70.5 h: -13.4%

COc1ccc2c(c1)OCC(Cc1ccc(N(C)C)nc1)C2 (centres undefined)
cytotoxicity at 70.5 h: -4.83%

N#CC1(c2ccccc2)CCN(C(=O)CN2C(=O)CCNC2=O)CC1
cytotoxicity at 70.5 h: -0.486%

Cn1cc(CN2CCC3(CC2)CC(Nc2nccs2)CO3)cn1 (centres undefined)
cytotoxicity at 70.5 h: 16.9%

Cn1cc(C2COC3(CCN(C(=O)c4ccccn4)CC3)C2)cn1 (centres undefined)
cytotoxicity at 70.5 h: -12.1%

O=C(CC1CC1)N1CCc2ncc(CN3CCOCC3)n2CC1
cytotoxicity at 70.5 h: -13.3%

O=C(N1CCOCC1)N1CCc2ncc(CN3CCCCC3)n2CC1
cytotoxicity at 70.5 h: -12.1%

O=C(NCC1CC1)[C@@H]1CCO[C@@H]2CCN(Cc3ccsc3)C[C@H]21
cytotoxicity at 70.5 h: -10.2%

COc1ccc(CN2CC[C@@H](O)[C@@H]2Cc2cnn(C)c2)cc1
cytotoxicity at 70.5 h: 21.7%

O=C([C@H]1C[C@H]2OCC[C@H]2N(CCc2ccccc2)C1)N1CCCO1
cytotoxicity at 70.5 h: -3.87%

Cn1cc(C[C@H]2[C@H](O)CCN2Cc2ccc(F)cc2)cn1
cytotoxicity at 70.5 h: 4.14%

COc1ccc(CN2CC[C@H](O)[C@@H]2Cc2cnn(C)c2)cc1
cytotoxicity at 70.5 h: -11.4%

Cc1cncc(C(=O)N2CC[C@@]3(C[C@H](NS(C)(=O)=O)CCO3)C2)c1
cytotoxicity at 70.5 h: -7.39%

O=C(C1CCOCC1)N1CCc2onc(COc3cccnc3)c2C1
cytotoxicity at 70.5 h: 0.0469%

O=C(c1ccncc1F)N1CCc2onc(COc3cccnc3)c2C1
cytotoxicity at 70.5 h: -6.64%

O=S(=O)(c1cccs1)N1CCCC2(COCCN(c3cccnc3)C2)C1 (centres undefined)
cytotoxicity at 70.5 h: -1.65%

O=C(N1CCCC1)N1CCc2onc(COc3cccnc3)c2C1
cytotoxicity at 70.5 h: -3.27%

Cn1cc(C[C@H]2[C@H](O)CCN2CC2CCOCC2)cn1
cytotoxicity at 70.5 h: -6.28%

O=C([C@H]1C[C@H]2OCC[C@H]2N(CC2CCOCC2)C1)N1CCCCO1
cytotoxicity at 70.5 h: -7.91%

CC1=N[C@@]2(CC[C@@H]3CN(CC(C)C)C[C@@H]32)C(=O)N1CC(C)C
cytotoxicity at 70.5 h: -13.7%

O=C(NCC1OCCc2cn(CC3CCOCC3)nc21)c1ccncc1 (centres undefined)
cytotoxicity at 70.5 h: -10.6%

COCCNC(=O)[C@H]1C[C@@H]2CCN(Cc3nccs3)C[C@H]2O1
cytotoxicity at 70.5 h: -13.5%

O=C(NCc1ccccn1)[C@@H]1COC[C@H]2CN(C3CCC3)C[C@H]21
cytotoxicity at 70.5 h: -13.4%

O=C(NC1CC1)[C@H]1C[C@H]2OCC[C@H]2N(Cc2ccc3ccccc3n2)C1
cytotoxicity at 70.5 h: -4.59%

Cc1ccc(O[C@@H]2C[C@H]3CN(C(=O)Cc4ccccn4)CCN3C2)cc1
cytotoxicity at 70.5 h: 17.9%

Cc1occc1C(=O)N1C[C@@H]2OCCN(CCN3CCCC3)[C@@H]2C1
cytotoxicity at 70.5 h: -3.12%

CN(C)[C@@H]1CCN(CC2CC2)[C@H]1Cc1cnn(C)c1
cytotoxicity at 70.5 h: 0.964%

CN1CCN(C2COC3(CCN(Cc4cccs4)CC3)C2)CC1 (centres undefined)
cytotoxicity at 70.5 h: 4.27%

c1csc(CN2CCCC3(COCCN(c4cnccn4)C3)C2)c1 (centres undefined)
cytotoxicity at 70.5 h: -6.31%

O=C(Cc1ccccn1)N1CCN2C[C@H](Oc3cncnc3)C[C@H]2C1
cytotoxicity at 70.5 h: -7.37%

Cc1cc(CN2CC[C@H]3C[C@H](C(=O)Nc4cccnc4C)O[C@@H]3C2)no1
cytotoxicity at 70.5 h: 12.4%

Cc1ncccc1NC(=O)[C@H]1C[C@@H]2CCN(Cc3ccsc3)C[C@H]2O1
cytotoxicity at 70.5 h: -13.8%
